Assay results as given in the supplement of paper PMC10307832.

Experiments:
Experiment in all cases: relative viability (nuclei count vs DMSO), 5 days (fraction); higher = more cells survive
[1] = compound: CC1=CC(=NN1)NC2=CC(=NC(=N2)/C=C/C3=CC=CC=C3)N4CCN(CC4)C + COc1cc2c(Oc3ccc(NC(=O)C4(C(=O)Nc5ccc(F)cc5)CC4)cc3F)ccnc2cc1OCCCN1CCOCC1 [Foretinib] (partner 0.25 µM)
Procedure, shortened: (§1)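 Lung cancer cell lines in 1536-well plates were dosed by pin tool the day after seeding, either with one drug alone or with a fixed anchor-drug dose plus five library-drug doses (not always all listed) in √10 steps. After 5 days, cells were fixed and their nuclei stained in one step (final 0.05% Triton X-100, 1% formaldehyde, 1 ug/ml Hoechst), then counted on 4× images. Relative viability is the nuclei count in treated wells divided by that in vehicle wells. Values are medians of duplicate plates.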

Obatoclax + Lapatinib = compound: COC1=CC(c2cc3ccccc3[nH]2)=N/C1=C\c1[nH]c(C)cc1C [Obatoclax] + CS(=O)(=O)CCNCc1ccc(-c2ccc3ncnc(Nc4ccc(OCc5cccc(F)c5)c(Cl)c4)c3c2)o1 [Lapatinib] (partner 2 µM)
Procedure, shortened: as §1

Bortezomib + AZD7762 = compound: CC(C)C[C@H](NC(=O)[C@H](Cc1ccccc1)NC(=O)c1cnccn1)B(O)O [Bortezomib] + NC(=O)Nc1cc(-c2cccc(F)c2)sc1C(=O)N[C@H]1CCCNC1 [AZD7762] (partner 0.2 µM)
Procedure, shortened: as §1

[2] = compound: CC1=CC(=NN1)NC2=CC(=NC(=N2)/C=C/C3=CC=CC=C3)N4CCN(CC4)C + CC(C)C[C@H](NC(=O)[C@H](Cc1ccccc1)NC(=O)c1cnccn1)B(O)O [Bortezomib] (partner 0.002 µM)
Procedure, shortened: as §1

Cell Line: NCI-H650
- relative viability ([1]; first compound 0.253 µM): 1.14
- relative viability ([1]; first compound 0.8 µM): 1.01
- relative viability ([1]; first compound 2.53 µM): 0.923
- relative viability ([1]; first compound 8 µM): 0.255
- relative viability (Obatoclax + Lapatinib; first compound 0.01 µM): 1.04
- relative viability (Obatoclax + Lapatinib; first compound 0.03162 µM): 0.811
- relative viability (Obatoclax + Lapatinib; first compound 0.1 µM): 0.438
- relative viability (Obatoclax + Lapatinib; first compound 0.3162 µM): 0.511
- relative viability (Obatoclax + Lapatinib; first compound 1 µM): 0.457
- relative viability (Bortezomib + AZD7762; first compound 0.0002 µM): 0.949
- relative viability (Bortezomib + AZD7762; first compound 0.000632 µM): 1.08
- relative viability (Bortezomib + AZD7762; first compound 0.002 µM): 0.95
- relative viability (Bortezomib + AZD7762; first compound 0.006325 µM): 0.942
- relative viability (Bortezomib + AZD7762; first compound 0.02 µM): 0.289
- relative viability ([2]; first compound 0.08 µM): 0.839
- relative viability ([2]; first compound 0.253 µM): 1.01
- relative viability ([2]; first compound 0.8 µM): 0.673
- relative viability ([2]; first compound 2.53 µM): 0.364
- relative viability ([2]; first compound 8 µM): 0.187
